Key:
[1] = test system: Philadelphia positive acute lymphoblastic leukemia (Ph+ ALL) cells; experiment: Colony growth of Philadelphia positive ALL cells in methylcellulose culture; type: cell-based, human
Procedure: (§1) Ph+ ALL cells were plated in 1 ml volumes, in the absence of exogenous growth factors, into 35 mm petri dishes (Nunc, Gibco) containing alpha MEM (Gibco) plus 10% FCS (Cansera Rexdale, ON.) in 0.9% (vol/vol) methylcellulose (Fluka, Switzerland) with the indicated concentrations of CR4. Cultures were set at 37° C., 5% CO2 in a humidified atmosphere. Colonies consisting of more than 20 cells were counted at 12 days or earlier using an inverted microscope.
as §1, with “ALL” for “Ph+ ALL”, “20%” for “10%”, “and” for “with”, “compound” for “CR4.”, “atmosphere” for “atmosphere.”
as §1, with “ALL” for “Ph+ ALL”, “20%” for “10%”, “ON)” for “ON.)”, “0.90%” for “0.9%”, “and” for “with”, “compound.” for “CR4.”
as §1, with “ALL” for “Ph+ ALL”, “20%” for “10%”, “and” for “with”, “CR24.” for “CR4.”, “9” for “12”
as §1, with “ALL” for “Ph+ ALL”, “20%” for “10%”, “and” for “with”, “CR19.” for “CR4.”, “9” for “12”

[2] = test system: Philadelphia positive Z119 acute lymphoblastic leukemia cells; experiment: Colony growth of Z119 ALL cells in methylcellulose culture; type: cell-based, human; details: low nanomolar doses; colonies at 7 days (FIG. 3)
Procedure: as §1, with “Z119” for “Ph+ ALL”, “volumes at a density of 1×10^4 cells/ml,” for “volumes,”, “IMDM (OCl, Toronto)” for “alpha MEM (Gibco)”, “20%” for “10%”, “concentration” for “concentrations”, “7” for “12”

[3] = test system: primary juvenile myelo-monocytic leukemia cells; experiment: Colony growth of primary JMML CD34+ cells in methylcellulose culture; type: cell-based, human; details: colonies at 12 days (FIG. 6)
Procedure: Heparinized bone marrow cells from a JMML patient were layered over Percoll (1.077 gm/ml) (Pharmacia Fine Chemical, Piscataway N.J.) and centrifuged at 400 g at 4° C. for 10 minutes to remove neutrophils and RBCs. Cells were further fractionated and purified on Miltenyl MS columns (Miltenyl Biotec GmbH, Germany) to acquire an early progenitor population of CD34^+ cells. The fractionated BM CD34^+ cells at a density of 1×10^4 cells/ml were cultured in IMDM (OCl, Toronto) containing 0.9% (vol/vol) methylcellulose supplemented with 30% FCS (Cansera Rexdale, ON.) with the indicated concentration of CR4. The culture mixture was plated in 1 ml volumes into 35 mm petri dishes and incubated at 37° C., 5% CO2 in a humidified atmosphere. Colonies consisting of more than 20 cells were counted at 12 days or earlier using an inverted microscope.

[4] = test system: HuNS1 multiple myeloma cells; experiment: Colony growth of HuNS1 multiple myeloma cells in methylcellulose culture; type: cell-based
Procedure: HuNS1 cells were plated in 35 mm petri dishes (Nunc, Gibco) in 1 ml volumes at a density of 1×10^4 cells/ml, in the absence of exogenous growth factors, containing alpha MEM plus 20% FCS (Cansera, Rexdale Ont.), and 0.9% (vol/vol) methylcellulose (Fluka, Switzerland) and the indicated concentrations of CR4. Cell cultures were incubated in a humidified atmosphere at 37° C. with 5% CO2. Colonies containing more than 20 cells were scored, using an inverted microscope, at […].

OCl-AML-3 cells = experiment: In vitro purging of OCl-AML-3 acute myeloid leukemia cells; type: cell-based; details: 2.5-5 hours exposure (FIG. 17)
Procedure: For the purging assay, the cells were resuspended in complete medium with or without CR4 as indicated and incubated at 37° C., 5% CO2 for 0-5 hours. Cells were then washed thoroughly with medium to remove CR4, resuspended and plated in 1 ml volumes at 5×10^3 cells/ml, in the absence of exogenous growth factors, into 35 mm petri dishes (Nunc, Gibco) containing alpha MEM (Gibco) plus 10% FCS (Cansera Rexdale, ON.) in 0.9% (vol/vol) methylcellulose (Fluka, Switzerland). Cultures were set at 37° C., 5% CO2 in a humidified atmosphere. Colonies consisting of more than 20 cells were counted at 5 days or earlier using an inverted microscope.

Jak2 = biological target: T1, Jak2 (Homo sapiens, UniProt O60674); experiment: Jak2 immunoprecipitate kinase assay after preincubation of Z119 cells; type: cell-based; details: Z119 cells preincubated for 5 hours (FIG. 24)
T1 construct: The cells were lysed in lysis buffer and immunoprecipitated with Jak2 antibody; endogenous in cells; host or cells: Z119 Ph+ ALL cell line (immunoprecipitate after 5 h preincubation of cells with CR4)
T1 sequence (O60674 whole entry): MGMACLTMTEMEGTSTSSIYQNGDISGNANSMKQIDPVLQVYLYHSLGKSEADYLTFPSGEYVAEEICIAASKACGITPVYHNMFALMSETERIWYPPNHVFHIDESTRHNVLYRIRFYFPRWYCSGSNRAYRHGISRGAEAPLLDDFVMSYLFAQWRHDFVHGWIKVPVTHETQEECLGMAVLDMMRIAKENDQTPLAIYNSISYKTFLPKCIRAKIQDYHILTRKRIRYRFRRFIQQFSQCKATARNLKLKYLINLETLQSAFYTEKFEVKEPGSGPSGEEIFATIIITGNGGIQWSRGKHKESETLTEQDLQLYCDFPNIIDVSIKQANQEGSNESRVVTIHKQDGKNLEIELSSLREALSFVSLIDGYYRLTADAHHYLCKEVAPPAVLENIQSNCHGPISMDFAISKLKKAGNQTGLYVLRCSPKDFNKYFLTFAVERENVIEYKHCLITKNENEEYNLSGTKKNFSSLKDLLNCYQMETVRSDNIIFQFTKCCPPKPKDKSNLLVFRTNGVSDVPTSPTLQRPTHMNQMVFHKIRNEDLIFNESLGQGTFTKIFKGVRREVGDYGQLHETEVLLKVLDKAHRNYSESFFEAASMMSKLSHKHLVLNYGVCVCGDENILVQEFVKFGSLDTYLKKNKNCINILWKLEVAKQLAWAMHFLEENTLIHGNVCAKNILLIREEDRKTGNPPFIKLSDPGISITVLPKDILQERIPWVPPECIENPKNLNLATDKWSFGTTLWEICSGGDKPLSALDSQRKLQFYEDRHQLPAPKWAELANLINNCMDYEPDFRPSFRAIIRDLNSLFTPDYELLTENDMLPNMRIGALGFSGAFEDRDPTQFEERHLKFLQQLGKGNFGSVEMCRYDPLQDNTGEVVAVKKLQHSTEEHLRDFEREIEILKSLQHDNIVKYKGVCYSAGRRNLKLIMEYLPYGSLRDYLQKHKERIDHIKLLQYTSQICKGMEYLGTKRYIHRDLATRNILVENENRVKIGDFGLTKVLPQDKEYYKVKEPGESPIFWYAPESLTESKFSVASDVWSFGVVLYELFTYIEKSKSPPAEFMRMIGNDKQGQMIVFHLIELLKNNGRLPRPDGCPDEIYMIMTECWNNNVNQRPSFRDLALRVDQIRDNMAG
Procedure: Philadelphia (Ph+) ALL Line Z119 (5×10^6 Cells/point) was Preincubated for 5 Hours with Different Concentrations of CR4 and Immunoprecipitated with Jak2 Antibody
The cells were lysed in lysis buffer and immunoprecipitated with Jak2 antibody. The precipitates were washed twice with lysis buffer and once with kinase assay buffer, followed by addition of 10 μCi ^33PγATP. The reaction was stopped after 20 min by the addition of SDS-PAGE reducing sample buffer and separated on an 8-16% SDS-PAGE gel. The products were transferred onto nitrocellulose membrane and visualized by autoradiography.

For N#C/C(=C\C=C\c1ccc(O)c(O)c1)C(=O)NCc1ccccc1 [CR4, (E,E)-2-(benzylaminocarbonyl)-3-(3,4-dihydroxystyryl)acrylonitrile], the “wipeout of bcr-abl transformed Philadelphia positive cells” value ([1]; concentrations as low as 40 nM) was over 90%, the “inhibition of Ph+ ALL cell proliferation and survival” value ([1]; low nanomolar doses (35-100), colonies at 12 days (FIG. 2)) was “significant inhibition” and the “inhibition of Z119 ALL cell proliferation and survival” value [2] was “significant inhibition”. The inhibition at 5 µM ([3]; Homo sapiens, JMML, 288 h, 5 μM) was 80 to 90%, the “killing ability with primary JMML cells” value [3] was “moderate killing ability” and the inhibition at 2.5 µM ([4]; HuNS1, 2.5 μM (FIG. 19), read-out: inhibition of cell proliferation and survival) was over 90%. The “inhibition of cell proliferation and survival” value ([4]; high nanomolar to low micromolar doses (FIG. 19)) was “significantly inhibited”, the “killing of OCl-AML-3 cells” value (OCl-AML-3 cells; 25 μM) was “significant killing” and the “killing of OCl-AML-3 cells” value (OCl-AML-3 cells; 50 μM) was “significant killing”. For the same molecule, the Jak2 kinase activity (Jak2; 6 μM) was “dramatically inhibited” and the Jak2 kinase activity (Jak2; concentrations higher than 6 μM) was “further blocked”.
